Experimental data as given in patent US20120214862A1, “MODULATION OF FACTOR 7 EXPRESSION” (ISIS Pharmaceuticals, Inc., priority 2009, published 2012).
e = 2'-O-(2-methoxyethyl) (MOE); d = 2'-deoxy (DNA)

Columns and labels:
[1] = tested on: extrinsic pathway of blood coagulation; test: Prothrombin Time (PT) in platelet poor plasma of treated mice, reported as INR; format: in vivo, mouse
Protocol: (§1) Prothrombin Time (PT) and Activated Partial Thromboplastin Time (aPTT) were measured using platelet poor plasma (PPP) from mice treated with ISIS 403102. PT and aPTT values provided in Table 20 are reported as International Normalized Ratio (INR) values. INR values for PT and aPTT were determined by dividing the PT or aPTT value for the experimental group by the PT or aPTT for the PBS treated group. This ratio was then raised to the power of the International Sensitivity Index (ISI) of the tissue factor used.
as §1, with “in Table 22 are reported” for “in Table 20 are reported”, “experimental group (i.e. 50 mg/kg treatment with ISIS 403102) by the” for “experimental group by the”
as §1, with “in Table 24 are reported” for “in Table 20 are reported”, “experimental group (i.e. 50 mg/kg treatment with ISIS 403102) by the” for “experimental group by the”

murine Factor 7 mRNA = test: Liver Factor 7 mRNA by real-time RT-PCR in treated BALB/c mice; format: in vivo, mouse; details: for % inhibition of murine Factor 7 mRNA: BALB/c liver; for % inhibition of murine Factor 7 mRNA / % inhibition of Factor 7 mRNA: relative to PBS control; for % inhibition of Factor 7 mRNA: liver; for % inhibition of Factor 7 mRNA (liver): mice
Protocol: A control group of mice was injected subcutaneously with PBS twice a week for 3 weeks. After the treatment period, whole liver was collected for RNA and protein analysis, and plasma was collected for clotting analysis (PT/aPTT).
(§2) RNA was extracted from liver tissue for real-time RT-PCR analysis of Factor 7.
A control group of 3 mice was injected with a single dose of PBS, and mice in this group were sacrificed on day 1. Mice in all groups were sacrificed by cervical dislocation following anesthesia with 150 mg/kg ketamine mixed with 10 mg/kg xylazine administered by intraperitoneal injection. Liver was harvested for RNA analysis and plasma was collected for clotting analysis (PT and aPTT).
as §2
Mice from the first group were sacrificed on days 1 and 3 after the single dose. […] A control group of 3 mice was injected with PBS in a single dose. Mice from the control group were sacrificed 1 day later. Mice in all groups were sacrificed by cervical dislocation following anesthesia with 150 mg/kg ketamine mixed with 10 mg/kg xylazine administered by intraperitoneal injection. Liver was harvested for RNA analysis and plasma was collected for clotting analysis (PT and aPTT) for mice in all groups.
RNA was extracted from liver tissue for quantitative RT-PCR analysis of Factor 7.
Two control groups of BALB/c mice were treated with PBS, administered subcutaneously twice a week for 3 weeks. Thrombus formation was induced with FeCl3 in half of the mice while the rest of the mice were assayed for tail bleeding. […] Thrombus formation was induced with FeCl3 in all groups of the VT mice except the first control group.
as §2
A fifth group of BALB/c mice was treated with 3 mg/kg of warfarin, administered intraperioneally daily for 6 days. Four hours after the last dose of warfarin, mice were sacrificed. A control group of BALB/c mice were treated with PBS, administered subcutaneously twice a week for 3 weeks. Two days after the last dose of PBS, mice were anesthetized with 150 mg/kg ketamine mixed with 10 mg/kg xylazine administered by intraperitoneal injection. Thrombus formation was induced with FeCl3 in groups of mice except the first control group.

[2] = BALB/c mice, single dose 50 mg/kg, day 1
[3] = BALB/c mice, single dose 50 mg/kg, day 2
[4] = BALB/c mice, single dose 50 mg/kg, day 3
[5] = BALB/c mice, single dose 50 mg/kg, day 4
[6] = BALB/c mice, single dose 50 mg/kg, day 6
[7] = BALB/c mice, single dose 50 mg/kg, day 8
[8] = BALB/c mice, single dose 50 mg/kg, day 12
[9] = BALB/c mice, single dose 50 mg/kg, day 24
[10] = BALB/c mice, single dose 50 mg/kg, day 56
[11] = single dose 50 mg/kg, BALB/c mice

Sequence: CCATAGAACAGCTTCACAGG (sugars from the 5' end e5 d10 e5, backbone and methylation of C not given here) [ISIS 403102]
- PT INR ([1]; BALB/c mice, 5 mg/kg s.c. twice a week for 3 weeks): 1.09
- PT INR ([1]; BALB/c mice, 10 mg/kg s.c. twice a week for 3 weeks): 1.33
- PT INR ([1]; BALB/c mice, 25 mg/kg s.c. twice a week for 3 weeks): 2.33
- PT INR ([1]; BALB/c mice, 50 mg/kg s.c. twice a week for 3 weeks): 4.37
- PT INR ([1]; BALB/c mice, 50 mg/kg, 1 dose, 1 day after last dose): 1.04
- PT INR ([1]; BALB/c mice, 50 mg/kg, 1 dose, 3 days after last dose): 1.20
- PT INR ([1]; BALB/c mice, 50 mg/kg, 2 doses, 3 days after last dose): 1.43
- PT INR ([1]; BALB/c mice, 50 mg/kg, 4 doses, 3 days after last dose): 2.13
- PT INR ([1]; BALB/c mice, 50 mg/kg, 6 doses, 2 days after last dose): 1.64
- PT INR ([1]; BALB/c mice, 50 mg/kg, 6 doses, 7 days after last dose): 2.08
- PT INR ([1]; BALB/c mice, 50 mg/kg, 6 doses, 14 days after last dose): 1.37
- PT INR ([1]; BALB/c mice, 50 mg/kg, 6 doses, 28 days after last dose): 0.96
- PT INR ([1]; BALB/c mice, 50 mg/kg, 6 doses, 42 days after last dose): 1.00
- PT INR ([1]; BALB/c mice, 50 mg/kg, 6 doses, 56 days after last dose): 0.99
- PT INR [1, 2]: 1.11
- PT INR [1, 3]: 1.64
- PT INR [1, 4]: 1.81
- PT INR [1, 5]: 1.97
- PT INR [1, 6]: 1.59
- PT INR [1, 7]: 1.55
- PT INR [1, 8]: 1.30
- PT INR [1, 9]: 1.12
- PT INR [1, 10]: 1.10
- PT compared to the control ([1]; Example 11, 5-50 mg/kg sc twice a week for 3 weeks): significantly prolonged
- PT over time ([1]; Example 13, 6 doses, day 7 to day 56): PT decreased
- PT INR ([1]; single dose 50 mg/kg, day 1): 1.11 INR
- PT INR ([1]; single dose 50 mg/kg, day 4): 1.97 INR
- PT INR ([1]; single dose 50 mg/kg, day 56): 1.10 INR
- % inhibition of murine Factor 7 mRNA (murine Factor 7 mRNA; 5 mg/kg sc twice a week for 3 weeks): 64%
- % inhibition of murine Factor 7 mRNA (murine Factor 7 mRNA; 10 mg/kg sc twice a week for 3 weeks): 84%
- % inhibition of murine Factor 7 mRNA (murine Factor 7 mRNA; 25 mg/kg sc twice a week for 3 weeks): 96%
- % inhibition of murine Factor 7 mRNA (murine Factor 7 mRNA; 50 mg/kg sc twice a week for 3 weeks): 99%
- reduction of murine Factor 7 (liver mRNA) over PBS control (murine Factor 7 mRNA; 5-50 mg/kg sc twice a week for 3 weeks, BALB/c mice): dose-dependent reduction
- % Inhibition of murine Factor 7 mRNA (liver) (murine Factor 7 mRNA; [2]): 61%
- % Inhibition of murine Factor 7 mRNA (liver) (murine Factor 7 mRNA; [3]): 87%
- % Inhibition of murine Factor 7 mRNA (liver) (murine Factor 7 mRNA; [4]): 92%
- % Inhibition of murine Factor 7 mRNA (liver) (murine Factor 7 mRNA; [5]): 92%
- % Inhibition of murine Factor 7 mRNA (liver) (murine Factor 7 mRNA; [6]): 86%
- % Inhibition of murine Factor 7 mRNA (liver) (murine Factor 7 mRNA; [7]): 80%
- % Inhibition of murine Factor 7 mRNA (liver) (murine Factor 7 mRNA; [8]): 72%
- % Inhibition of murine Factor 7 mRNA (liver) (murine Factor 7 mRNA; [9]): 11%
- % Inhibition of murine Factor 7 mRNA (liver) (murine Factor 7 mRNA; [10]): 0%
- Factor 7 inhibition over time (murine Factor 7 mRNA; Example 13, 6 doses of 25 mg/kg sc, days 14, 28, 42 and 56 after last dose): declined progressively
- inhibition of Factor 7 mRNA, onset (murine Factor 7 mRNA; Example 13, single dose 25 mg/kg sc): inhibition of Factor 7 as early as day 1
- reduction of Factor 7 mRNA in comparison to the PBS control (murine Factor 7 mRNA; Example 14, 25, 37.5 or 50 mg/kg sc twice a week for 3 weeks, FeCl3 VT model): significant dose-dependent reduction
- reduction of Factor 7 mRNA in comparison to the PBS control (murine Factor 7 mRNA; Example 15, 5-40 mg/kg sc twice a week for 3 weeks): significant dose-dependent reduction
- % inhibition of Factor 7 mRNA (murine Factor 7 mRNA; BALB/c mice, FeCl3 VT model (Example 15), 5 mg/kg s.c. twice a week for 3 weeks): 59%
- % inhibition of Factor 7 mRNA (murine Factor 7 mRNA; BALB/c mice, FeCl3 VT model (Example 15), 10 mg/kg s.c. twice a week for 3 weeks): 84%
- % inhibition of Factor 7 mRNA (murine Factor 7 mRNA; BALB/c mice, FeCl3 VT model (Example 15), 20 mg/kg s.c. twice a week for 3 weeks): 95%
- % inhibition of Factor 7 mRNA (murine Factor 7 mRNA; BALB/c mice, FeCl3 VT model (Example 15), 40 mg/kg s.c. twice a week for 3 weeks): 99%
- % inhibition of Factor 7 mRNA (murine Factor 7 mRNA; BALB/c mice, FeCl3 VT model, 25 mg/kg s.c. twice a week for 3 weeks): 24%
- % inhibition of Factor 7 mRNA (murine Factor 7 mRNA; BALB/c mice, FeCl3 VT model, 37.5 mg/kg s.c. twice a week for 3 weeks): 74%
- % inhibition of Factor 7 mRNA (murine Factor 7 mRNA; BALB/c mice, FeCl3 VT model, 50 mg/kg s.c. twice a week for 3 weeks): 69%
- % inhibition of Factor 7 mRNA (liver) (murine Factor 7 mRNA; 25 mg/kg s.c. twice a week, 2 doses, 3 days after last dose): 86%
- % inhibition of Factor 7 mRNA (liver) (murine Factor 7 mRNA; 25 mg/kg s.c. twice a week, 4 doses, 3 days after last dose): 91%
- % inhibition of Factor 7 mRNA (liver) (murine Factor 7 mRNA; 25 mg/kg s.c. twice a week, 6 doses, 2 days after last dose): 83%
- % inhibition of Factor 7 mRNA (liver) (murine Factor 7 mRNA; 25 mg/kg s.c. twice a week, 6 doses, 7 days after last dose): 88%
- % inhibition of Factor 7 mRNA (liver) (murine Factor 7 mRNA; 25 mg/kg s.c. twice a week, 6 doses, 14 days after last dose): 64%
- % inhibition of Factor 7 mRNA (liver) (murine Factor 7 mRNA; 25 mg/kg s.c. twice a week, 6 doses, 28 days after last dose): 33%
- % inhibition of Factor 7 mRNA (liver) (murine Factor 7 mRNA; 25 mg/kg s.c. twice a week, 6 doses, 42 days after last dose): 5%
- % inhibition of Factor 7 mRNA (liver) (murine Factor 7 mRNA; 25 mg/kg s.c. twice a week, 6 doses, 56 days after last dose): 11%
- % inhibition of Factor 7 mRNA (liver) (murine Factor 7 mRNA; 25 mg/kg s.c., 1 dose, 1 day after last dose): 44%
- % inhibition of Factor 7 mRNA (liver) (murine Factor 7 mRNA; 25 mg/kg s.c., 1 dose, 3 days after last dose): 74%
- duration of action (murine Factor 7 mRNA; [11]): at least 24 days
- peak effect of a single dose occurs on (murine Factor 7 mRNA; [11]): ~4 days
- inhibition of Factor 7 mRNA (murine Factor 7 mRNA; single dose 50 mg/kg, day 4): 92%
- inhibition of Factor 7 mRNA (murine Factor 7 mRNA; single dose 50 mg/kg, day 24): 11%
- Factor 7 mRNA levels (murine Factor 7 mRNA; single dose 50 mg/kg, day 56): equal to that of the PBS control
